Where “and” joins values, the source holds several entries; their conditions need not be identical. Identical values can stand only once. Inconclusive results and toxic doses are left out. Rule as the data show it: active = T/C of 150% or more; inactive = T/C below 125%.
Tested on: L1210 leukemia ip in BDF1 mice, survival T/C
Test: NCI In Vivo Anticancer Drug Screen. Data for tumor model L1210 Leukemia (intraperitoneal) in B6D2F1 (BDF1) mice
Conditions: endpoint: mean survival time, higher = longer survival
How it was run: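 Transplantable tumor model; survival measured in treated vs vehicle control mice. Value = treated/control.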

[1] = dose: 100.0 mg/kg/injection, schedule: Q01DX009 (ip), vehicle: water
[2] = dose: 200.0 mg/kg/injection, schedule: Q01DX009 (ip), vehicle: water
[3] = dose: 400.0 mg/kg/injection, schedule: Q01DX009 (ip), vehicle: water
[4] = dose: 100.0 mg/kg/injection, schedule: Q01DX009 (ip), vehicle: Klucel (hydroxypropylcellulose) (HPC)
[5] = dose: 200.0 mg/kg/injection, schedule: Q01DX009 (ip), vehicle: Klucel (hydroxypropylcellulose) (HPC)
[6] = dose: 100.0 mg/kg/injection, schedule: Q01DX001 (ip), vehicle: carboxymethylcellulose (CMC)
[7] = dose: 200.0 mg/kg/injection, schedule: Q01DX001 (ip), vehicle: carboxymethylcellulose (CMC)
[8] = dose: 100.0 mg/kg/injection, schedule: Q01DX009 (ip), vehicle: saline with Tween-80
[9] = dose: 200.0 mg/kg/injection, schedule: Q01DX009 (ip), vehicle: saline with Tween-80
[10] = dose: 200.0 mg/kg/injection, schedule: Q04DX003 (ip), vehicle: saline
[11] = dose: 400.0 mg/kg/injection, schedule: Q01DX009 (ip), vehicle: saline with Tween-80
[12] = dose: 400.0 mg/kg/injection, schedule: Q04DX003 (ip), vehicle: saline
[13] = dose: 100.0 mg/kg/injection, schedule: Q01DX001 (ip), vehicle: saline
[14] = dose: 200.0 mg/kg/injection, schedule: Q01DX001 (ip), vehicle: saline
[15] = dose: 100.0 mg/kg/injection, schedule: Q04DX003 (ip), vehicle: saline with Tween-80
[16] = dose: 200.0 mg/kg/injection, schedule: Q04DX002 (ip), vehicle: saline with Tween-80
[17] = dose: 200.0 mg/kg/injection, schedule: Q04DX003 (ip), vehicle: saline with Tween-80
[18] = dose: 400.0 mg/kg/injection, schedule: Q04DX003 (ip), vehicle: saline with Tween-80

Measured: T/C

CCCCN(C)N=Nc1cn(C2OC(CO)C(O)C2O)c(=O)[nH]c1=O (stereo unspecified)
inactive: [1] 112 % of control | dose: 100.0 mg/kg/injection, schedule: Q04DX003 (ip), vehicle: water 96 % of control | [2] 106 % of control | dose: 200.0 mg/kg/injection, schedule: Q04DX003 (ip), vehicle: water 102 % of control | [3] 117 % of control | dose: 400.0 mg/kg/injection, schedule: Q04DX003 (ip), vehicle: water 107 % of control

CCCCCCCCC(C)c1ccccc1O (stereo unspecified)
inactive: [4] 104 % of control | [5] 101 % of control | dose: 400.0 mg/kg/injection, schedule: Q01DX009 (ip), vehicle: Klucel (hydroxypropylcellulose) (HPC) 112 % of control

CC/C(=C/C(F)(F)C(F)(F)C(F)(F)F)[N+](=O)[O-]
inactive: [6] 112 % of control | [7] 103 % of control

Cc1cc2c3ccccc3[nH]c(=O)n2n1
inactive: [8] 96 % of control | dose: 100.0 mg/kg/injection, schedule: Q04DX003 (ip), vehicle: saline 100 % of control | [9] 95 % of control | [10] 96 % of control | [11] 86 % of control | [12] 87 % of control

C[N+](C)(C)/N=C1\CC2CCC1C2 (stereo unspecified)
inactive: [13] 98 % of control | [14] 101 % of control

O=C1C(=O)c2c3ccccc3cc3cccc1c23
inactive: dose: 50.0 mg/kg/injection, schedule: Q01DX009 (ip), vehicle: saline with Tween-80 88 % of control | [8] 91 % of control

CC(=O)c1ccc(N=Nc2c(N)nc(N)nc2N)cc1
inactive: [13] 94 % of control | [14] 94 % of control | dose: 400.0 mg/kg/injection, schedule: Q01DX001 (ip), vehicle: saline 94 % of control

CCCNC(=O)Oc1ccc(SC)cc1
inactive: dose: 100.0 mg/kg/injection, schedule: Q01DX001 (ip), vehicle: other 96 % of control | dose: 100.0 mg/kg/injection, schedule: Q01DX009 (ip), vehicle: other 94 % of control and 99 % of control | dose: 100.0 mg/kg/injection, schedule: Q04DX002 (ip), vehicle: other 93 % of control and 97 % of control | dose: 100.0 mg/kg/injection, schedule: Q04DX002 (ip), vehicle: saline with Tween-80 100 % of control | [15] 107 % of control | dose: 200.0 mg/kg/injection, schedule: Q01DX001 (ip), vehicle: other 98 % of control | dose: 200.0 mg/kg/injection, schedule: Q01DX009 (ip), vehicle: other 103 % of control | dose: 200.0 mg/kg/injection, schedule: Q04DX002 (ip), vehicle: other 97 % of control and 103 % of control | [16] 113 % of control | [17] 105 % of control | dose: 400.0 mg/kg/injection, schedule: Q01DX009 (ip), vehicle: other 89 % of control | dose: 400.0 mg/kg/injection, schedule: Q04DX002 (ip), vehicle: other 108 % of control and 86 % of control | dose: 400.0 mg/kg/injection, schedule: Q04DX002 (ip), vehicle: saline with Tween-80 106 % of control | [18] 100 % of control

S=C([S][Sn]([S]C(=S)N(c1ccccc1)c1ccccc1)([c]1ccccc1)[c]1ccccc1)N(c1ccccc1)c1ccccc1
inactive: dose: 100.0 mg/kg/injection, schedule: Q01DX001 (ip), vehicle: steriod suspending solution 93 % of control | dose: 200.0 mg/kg/injection, schedule: Q01DX001 (ip), vehicle: steriod suspending solution 112 % of control

CCc1ccc(N=Nc2ccc(N)cc2)cc1
inactive: [6] 101 % of control | [7] 89 % of control | dose: 400.0 mg/kg/injection, schedule: Q01DX001 (ip), vehicle: carboxymethylcellulose (CMC) 93 % of control

CCOC(=O)Nc1nc(Cl)c(Cl)nc1Cl
inactive: dose: 25.0 mg/kg/injection, schedule: Q01DX009 (ip), vehicle: water 93 % of control | dose: 50.0 mg/kg/injection, schedule: Q01DX009 (ip), vehicle: water 102 % of control | [1] 98 % of control | [2] 91 % of control | [3] 96 % of control

O=P1(c2ccccc2)OCCO1
inactive: dose: 25.0 mg/kg/injection, schedule: Q01DX009 (ip), vehicle: carboxymethylcellulose (CMC) 97 % of control and 98 % of control | dose: 50.0 mg/kg/injection, schedule: Q01DX009 (ip), vehicle: carboxymethylcellulose (CMC) 100 % of control and 101 % of control | dose: 100.0 mg/kg/injection, schedule: Q01DX009 (ip), vehicle: carboxymethylcellulose (CMC) 94 % of control and 100 % of control and 101 % of control | dose: 100.0 mg/kg/injection, schedule: Q04DX002 (ip), vehicle: carboxymethylcellulose (CMC) 93 % of control and 102 % of control | dose: 100.0 mg/kg/injection, schedule: Q04DX003 (ip), vehicle: carboxymethylcellulose (CMC) 103 % of control | dose: 200.0 mg/kg/injection, schedule: Q04DX002 (ip), vehicle: carboxymethylcellulose (CMC) 96 % of control | dose: 200.0 mg/kg/injection, schedule: Q04DX003 (ip), vehicle: carboxymethylcellulose (CMC) 107 % of control | dose: 400.0 mg/kg/injection, schedule: Q04DX002 (ip), vehicle: carboxymethylcellulose (CMC) 96 % of control | dose: 400.0 mg/kg/injection, schedule: Q04DX003 (ip), vehicle: carboxymethylcellulose (CMC) 97 % of control

CC(C)(C)NC(=O)C1CCCC(C(=O)NC(C)(C)C)C1 (stereo unspecified)
inactive: [10] 88 % of control | [12] 88 % of control

N#CCCP(=S)(CCC#N)CCC#N
inactive: dose: 100.0 mg/kg/injection, schedule: Q04DX002 (ip), vehicle: Klucel (hydroxypropylcellulose) (HPC) 94 % of control | dose: 200.0 mg/kg/injection, schedule: Q04DX002 (ip), vehicle: Klucel (hydroxypropylcellulose) (HPC) 112 % of control | dose: 400.0 mg/kg/injection, schedule: Q04DX002 (ip), vehicle: Klucel (hydroxypropylcellulose) (HPC) 105 % of control

COc1ccc(-c2nnc3n2C(C)(C)N=C(N)N3)cc1
inactive: [15] 94 % of control | [17] 100 % of control | [18] 97 % of control

CC1(C)C2(C(N)=O)C(=O)NC(=O)C12C(=O)O (stereo unspecified)
inactive: [16] 92 % of control

Cc1ccc(CNc2ccc(F)cc2)cc1
inactive: [8] 94 % of control | [15] 92 % of control | [9] 100 % of control | [17] 102 % of control | [11] 97 % of control | [18] 113 % of control

CC(=O)[S][Pb]([c]1ccccc1)([c]1ccccc1)[c]1ccccc1
inactive: dose: 1.0 mg/kg/injection, schedule: Q01DX009 (ip), vehicle: saline 93 % of control | dose: 2.0 mg/kg/injection, schedule: Q01DX009 (ip), vehicle: saline 93 % of control | dose: 4.0 mg/kg/injection, schedule: Q01DX009 (ip), vehicle: saline 95 % of control and 100 % of control | dose: 5.9 mg/kg/injection, schedule: Q01DX009 (ip), vehicle: saline 86 % of control

O=NN(CCCl)C(=O)NC(=O)NCCCl
inactive: dose: 1.0 mg/kg/injection, schedule: Q01DX001 (ip), vehicle: carboxymethylcellulose (CMC) 112 % of control | dose: 2.0 mg/kg/injection, schedule: Q01DX001 (ip), vehicle: carboxymethylcellulose (CMC) 118 % of control | dose: 4.0 mg/kg/injection, schedule: Q01DX001 (ip), vehicle: carboxymethylcellulose (CMC) 122 % of control | dose: 18.0 mg/kg/injection, schedule: Q01DX001 (ip), vehicle: carboxymethylcellulose (CMC) 119 % of control

CC1(Br)C(=O)NC(=O)NC1O (stereo unspecified)
inactive: dose: 50.0 mg/kg/injection, schedule: Q01DX009 (ip), vehicle: Klucel (hydroxypropylcellulose) (HPC) 98 % of control | [4] 94 % of control | [5] 94 % of control

O=C(O)CNC(=O)CNC(=O)C(Br)Cc1ccccc1 (stereo unspecified)
inactive: [4] 98 % of control | [15] 101 % of control | [5] 88 % of control | [17] 95 % of control | [18] 100 % of control

Oc1ccccc1/C=N/n1cnnc1
inactive: dose: 100.0 mg/kg/injection, schedule: Q04DX003 (ip), vehicle: Klucel (hydroxypropylcellulose) (HPC) 98 % of control | dose: 200.0 mg/kg/injection, schedule: Q04DX003 (ip), vehicle: Klucel (hydroxypropylcellulose) (HPC) 100 % of control | dose: 400.0 mg/kg/injection, schedule: Q04DX003 (ip), vehicle: Klucel (hydroxypropylcellulose) (HPC) 100 % of control

Reference: PubChem BioAssay AID248 (DTP/NCI, 2004)
